Test results: article PMC12292862 (Biomedicines, 2025)
Entries after “also recorded” stand apart in the source; their conditions may differ.

Target: bovine serum albumin (Bos taurus, UniProt P02769)
Assay: Bovine serum albumin denaturation inhibition assay
Settings: 50–1000 µg/mL; Figure 2A; result in words
Protocol: A bovine serum albumin assay was conducted using the previously mentioned technique. Synthesized compounds were dissolved in 2% Tween 80 saline solution (v/v) to create a solution at different doses of 50, 100, 200, 400, 800, and 1000 μg/mL. To prepare the test control sample (0.5 mL), 0.45 mL of 5% w/v bovine serum albumin was dissolved in 0.05 mL of distilled water. A product control solution was made by mixing 0.45 mL of Tween 80 with 0.50 mL of the test sample. 0.45 mL of bovine serum albumin and 0.50 mL of synthesized compounds made up the […] test solution. […] A pH of 6.3 was adjusted using 1 N HCl. Every solution was heated for 3 min at 60 °C after being kept at 37 °C for 20 min. Samples were then allowed to cool, and their absorbance at 660 nm was measured. Three duplicates of the procedure were carried out, and the percentage inhibition of denaturation of the bovine serum albumin was calculated using the following formula:%Inhibition = ((Absorbance Control − Absorbance Sample)/(Absorbance control)) × 100.

bovine serum albumin, sequence (P02769 25-607): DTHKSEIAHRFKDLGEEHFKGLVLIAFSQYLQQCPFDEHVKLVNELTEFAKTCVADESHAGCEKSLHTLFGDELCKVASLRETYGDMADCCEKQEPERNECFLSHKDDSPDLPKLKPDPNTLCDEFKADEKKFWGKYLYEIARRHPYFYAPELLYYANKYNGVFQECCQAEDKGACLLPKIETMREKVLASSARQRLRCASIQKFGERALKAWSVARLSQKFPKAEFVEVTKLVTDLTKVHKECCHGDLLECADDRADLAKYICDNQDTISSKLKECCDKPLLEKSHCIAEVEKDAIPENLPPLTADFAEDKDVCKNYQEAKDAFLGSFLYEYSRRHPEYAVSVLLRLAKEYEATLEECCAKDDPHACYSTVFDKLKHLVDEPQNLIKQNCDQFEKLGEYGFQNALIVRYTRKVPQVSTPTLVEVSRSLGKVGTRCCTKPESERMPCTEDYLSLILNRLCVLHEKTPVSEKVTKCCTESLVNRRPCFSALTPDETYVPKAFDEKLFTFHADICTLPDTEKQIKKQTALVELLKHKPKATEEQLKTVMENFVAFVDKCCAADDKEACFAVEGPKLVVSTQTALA

Structure (SMILES) | inhibition of bovine serum albumin denaturation
CC1(C)CC(=O)CC2(C1)N=C(N)Nc1nc(C(=O)Nc3ccc(S(N)(=O)=O)cc3)nn12 (centres unmarked) [Compound 2] | moderate inhibition; also recorded: superior percentage inhibition of protein denaturation
NC1=NC2(c3ccccc3Cc3ccccc32)n2nc(C(=O)Nc3ccc(S(N)(=O)=O)cc3)nc2N1 [Compound 3] | highest protective effect; also recorded: superior percentage inhibition of protein denaturation
